The values below are quoted from earlier work in US20210154122A1, “TOPICAL COMPOSITION” (OTSUKA PHARMACEUTICAL CO., LTD., priority 2017, published 2021).

In this data set the test system is keratocytes. The conditions noted are these: keratocytes treated with uridine; disclosed in Patent Document 5 (JP 2009-517380 A).

Regarding `O=c1ccn([C@@H]2O[C@H](CO)[C@@H](O)[C@H]2O)c(=O)[nH]1` [uridine], the hyaluronic acid production result is “promoted”.
